In BigSolDB 2.1:

N[C@H](Cc1c[nH]c2ccccc12)C(=O)O
solubility (mole fraction)
Settings	283.15 K	288.15 K	293.15 K	298.15 K	303.15 K	308.15 K	313.15 K	318.15 K	323.15 K	328.15 K
in DMSO	–	–	0.00359	0.00381	0.00464	0.00551	0.00596	0.00705	0.00778	0.00911
in acetonitrile	5.75e-05	6.84e-05	8.14e-05	0.000107	0.000128	0.00015	0.000206	0.000241	0.000307	0.000372
in ethyl acetate	0.000238	0.000302	0.000376	0.000476	0.000541	0.000699	0.000837	0.00115	0.00141	0.0018
in ethylene glycol	0.00148	0.00167	0.00246	0.00318	0.00437	0.00547	0.00804	0.00999	0.0125	0.0161
in n-butanol	1.97e-05	2.21e-05	2.99e-05	3.52e-05	4.81e-05	5.68e-05	7.9e-05	9.26e-05	0.00012	0.000137
in n-octanol	1.36e-05	1.53e-05	1.88e-05	2.49e-05	2.8e-05	3.61e-05	4.02e-05	4.83e-05	5.87e-05	6.53e-05
in n-propanol	4.51e-05	6.23e-05	7.27e-05	8.69e-05	0.000111	0.000127	0.000157	0.000177	0.000219	0.000244
